The values below come from patent US20030162824A1, “Methods of treating or preventing a cardiovascular condition using a cyclooxygenase-1 inhibitor” (priority 2001, published 2003).

Values joined by “and” are separate entries in the source; they are usually repeats but may differ in a detail not shown here. Identical values can stand only once.

Usually IC50 stands for the point on the concentration scale where inhibition reaches its midpoint.

Assay [1] concerns apoE knockout mice fed a 1% cholesterol diet. The assay is described as follows: Effect of cyclooxygenase inhibition on the development of atherosclerosis in cholesterol-fed apoE knockout mice. Particulars: for extent of lesion development: aortae after 10 weeks, vehicle 25.8±4.5%.
Description: The role of cyclooxygenase-1 and cyclooxygenase-2 on the development of atherosclerosis in apoE knockout mice fed a 1% cholesterol diet was evaluated. […] ApoE^−/− fed a normal chow (n=20) and wildtype littermates (n=40) were used as controls for the study. Twenty-four hour urine samples were collected and the aortae harvested following 10 weeks of treatment.
A further assay deals with T1, hCox-2 (Homo sapiens, UniProt P35354).
T1 construct: A 2.0 kb fragment containing the coding region of either human or murine COX-1 or human or murine COX-2; made in house; host or cells: SF9 insect cells (baculovirus, pVL1393)
T1 sequence (P35354 18-604): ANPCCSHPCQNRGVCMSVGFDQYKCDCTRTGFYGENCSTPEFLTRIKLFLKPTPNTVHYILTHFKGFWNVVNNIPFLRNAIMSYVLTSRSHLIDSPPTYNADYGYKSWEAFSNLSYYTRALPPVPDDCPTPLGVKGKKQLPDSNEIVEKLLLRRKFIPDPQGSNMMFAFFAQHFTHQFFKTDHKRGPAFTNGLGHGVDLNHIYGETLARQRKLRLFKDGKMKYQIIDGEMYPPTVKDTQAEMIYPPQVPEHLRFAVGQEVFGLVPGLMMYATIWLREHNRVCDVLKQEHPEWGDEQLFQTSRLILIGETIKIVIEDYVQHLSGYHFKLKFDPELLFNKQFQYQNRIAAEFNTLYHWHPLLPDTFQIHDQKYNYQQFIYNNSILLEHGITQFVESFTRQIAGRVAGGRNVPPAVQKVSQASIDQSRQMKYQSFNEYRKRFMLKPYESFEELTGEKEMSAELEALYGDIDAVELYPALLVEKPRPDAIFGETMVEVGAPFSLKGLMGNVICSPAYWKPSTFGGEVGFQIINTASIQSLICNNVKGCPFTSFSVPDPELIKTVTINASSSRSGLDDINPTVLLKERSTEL
Briefly: Evaluation of COX-2 activity in vitro (recombinant enzyme, PGE2 ELISA). The class given is biochemical. On the technique in general: ELISA stands for enzyme-linked immunosorbent assay.

The target in a further assay is T2, hCox-1 (Homo sapiens, UniProt P23219).
T2 construct: A 2.0 kb fragment containing the coding region of either human or murine COX-1 or human or murine COX-2; made in house; host or cells: SF9 insect cells (baculovirus, pVL1393)
T2 sequence (P23219 24-599): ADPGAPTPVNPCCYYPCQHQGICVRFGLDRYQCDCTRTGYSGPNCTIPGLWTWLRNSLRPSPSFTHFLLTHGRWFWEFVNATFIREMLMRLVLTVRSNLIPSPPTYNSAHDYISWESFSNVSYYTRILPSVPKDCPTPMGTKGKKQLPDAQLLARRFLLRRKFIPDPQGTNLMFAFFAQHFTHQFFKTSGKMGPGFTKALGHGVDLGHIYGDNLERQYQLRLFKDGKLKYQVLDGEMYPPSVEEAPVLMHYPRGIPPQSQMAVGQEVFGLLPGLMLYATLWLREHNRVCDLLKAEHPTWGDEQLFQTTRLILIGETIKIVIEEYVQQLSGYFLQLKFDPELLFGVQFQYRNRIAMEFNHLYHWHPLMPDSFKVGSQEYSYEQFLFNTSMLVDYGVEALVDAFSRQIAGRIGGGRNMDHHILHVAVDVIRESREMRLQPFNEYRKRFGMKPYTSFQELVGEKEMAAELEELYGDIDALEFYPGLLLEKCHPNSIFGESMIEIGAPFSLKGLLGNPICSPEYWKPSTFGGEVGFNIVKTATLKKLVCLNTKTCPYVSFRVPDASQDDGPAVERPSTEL
Briefly: Evaluation of COX-1 activity in vitro (recombinant enzyme, PGE2 ELISA). The assay is classed as biochemical.

[2] abbreviates: 10 weeks, COX-1 inhibitor 15 mg/kg daily, COX-2 inhibitor 6 mg/kg.
[3] abbreviates: COX-1 inhibitor 15 mg/kg daily, COX-2 inhibitor 6 mg/kg.

Description for hCox-1: (§1) Recombinant baculoviruses were isolated by transfecting 4 μg of baculovirus transfer vector DNA into SF9 insect cells (2×10^8) along with 200 ng of linearized baculovirus plasmid DNA by the calcium phosphate method.
(§2) Recombinant viruses were purified by three rounds of plaque purification and high titer (10^7-10^8 pfu/mL) stocks of virus were prepared. For large scale production, SF9 insect cells were infected in 10 liter fermentors (0.5×10^6/mL) with the recombinant baculovirus stock such that the multiplicity of infection was 0.1. […] The homogenate was centrifuged at 10,000×G for 30 minutes, and the resultant supernatant was stored at −80° C. before being assayed for COX activity.
(§3) COX activity was assayed as PGE2 formed/μg protein/time using an ELISA to detect the prostaglandin released. CHAPS-solubilized insect cell membranes containing the appropriate COX enzyme were incubated in a potassium phosphate buffer (50 mM, pH 8.0) containing epinephrine, phenol, and heme with the addition of arachidonic acid (10 μM). Compounds were pre-incubated with the enzyme for 10-20 minutes prior to the addition of arachidonic acid. […] The PGE2 formed was measured by standard ELISA technology (Cayman Chemical).
Description for hCox-2: as §1, §2, §3

Consider `COc1ccc(-n2nc(C(F)(F)F)cc2-c2ccc(Cl)cc2)cc1`, for which the “CD41 staining of lesions (platelet deposition)” value in assay [1] (setting [2]) is given as “markedly attenuated”. Turning to `COc1ccc(-n2nc(C(F)(F)F)cc2-c2ccc(Cl)cc2)cc1` [Compound 1], in assay [1] (24 h urine after 10 weeks of treatment, COX-1 inhibitor 15 mg/kg daily, vehicle 20.7±4.02), the “Urinary TXB2 excretion” value turned out to be 2.63 ± 0.59 ng/mL. In addition, the “extent of lesion development” value in assay [1] (setting [3]) came to 4.6±0.4%. In the case of `COc1ccc(-n2nc(C(F)F)cc2-c2ccc(Cl)cc2)cc1` [Compound 2, 5-(4-chlorophenyl)-3-(difluoromethyl)-1-(4-methoxyphenyl)pyrazole], the IC50 at hCox-2 was greater than 100 µM; at hCox-1 it was < 0.137 µM and 0.021 µM. `COC(=O)c1cc(-c2ccc(Cl)cc2)n(-c2ccc(OC)cc2)n1` [Compound 3, 5-(4-chlorophenyl)-3-(methoxycarbonyl)-1-(4-methoxyphenyl)pyrazole]: the IC50 at hCox-2 was greater than 100 µM; on hCox-1, 0.284 µM.

Regarding `COc1ccc(-n2nc(C(=O)O)cc2-c2ccc(Cl)cc2)cc1` [Compound 4, 3-carboxy-5-(4-chlorophenyl)-1-(4-methoxyphenyl)pyrazole], the values for the IC50 on hCox-2 and at hCox-1 were greater than 100 µM and 55.7 µM, respectively. The corresponding values for `FC(F)(F)c1cc(-c2ccccc2)n(-c2ccc(Cl)cc2)n1` [Compound 7, 1-(4-chlorophenyl)-5-phenyl-3-(trifluoromethyl)pyrazole] are greater than 1000 µM and 0.085 µM. The corresponding values for `FC(F)(F)c1cc(-c2ccc(Cl)cc2)n(-c2ccccc2)n1` [Compound 9, 5-(4-chlorophenyl)-1-phenyl-3-(trifluoromethyl)pyrazole] are greater than 1000 µM and 0.123 µM.

Take `FC(F)(F)c1cc(-c2ccc(Br)cc2)n(-c2ccccc2)n1` [Compound 12, 5-(4-bromophenyl)-1-phenyl-3-(trifluoromethyl)pyrazole]: the IC50 was greater than 500 µM on hCox-2 and 0.435 µM at hCox-1. Take `FC(F)(F)c1cc(-c2cccc(Br)c2)n(-c2ccccc2)n1` [Compound 13]: the figures for the IC50 at hCox-2 and on hCox-1 were greater than 100 µM and 3.3 µM, respectively. The corresponding values for `FC(F)(F)c1cc(-c2ccc(I)cc2)n(-c2ccccc2)n1` [Compound 15, 5-(4-iodophenyl)-1-phenyl-3-(trifluoromethyl)pyrazole] are greater than 100 µM and 0.65 µM. The corresponding values for `Cc1ccc(-c2cc(C(F)(F)F)nn2-c2ccc(Br)cc2)cc1` [Compound 16, 1-(4-bromophenyl)-5-(4-methylphenyl)-3-(trifluoromethyl)pyrazole] are 0.424 µM and less than 0.137 µM. The corresponding values for `COC(=O)c1nn(-c2ccc(OC)cc2)c2c1CCc1cc(OC)ccc1-2` [Compound 18] are greater than 100 µM and 0.442 µM. With `COc1ccc(-n2nc(C(F)F)cc2-c2ccc(SC)cc2)cc1` [Compound 19], the figures for the IC50 on hCox-2 and on hCox-1 were greater than 100 µM and 0.126 µM, respectively. Regarding `COc1ccc(-n2nc(CCC(=O)N(C)O)cc2-c2ccc(Cl)cc2)cc1` [Compound 20], the figures for the IC50 on hCox-2 and at hCox-1 were greater than 1000 µM and 0.027 µM, respectively. The corresponding values for `O=[N+]([O-])c1ccc(-c2cc(C(F)F)nn2-c2ccc(F)cc2)cc1` [Compound 21] are 22.8 µM and 0.647 µM.

As for `O=[N+]([O-])c1ccc(-n2nc(C(F)(F)F)cc2-c2ccc(Cl)cc2)cc1` [Compound 22], the IC50 on hCox-2 is greater than 100 µM; at hCox-1 it was 0.81 µM.

With `O=[N+]([O-])c1ccc(-n2nc(C(F)F)cc2-c2ccc(Cl)cc2)cc1` [Compound 23], the IC50 at hCox-2 is greater than 100 µM; on hCox-1 it was 0.676 µM.

As to `NS(=O)(=O)c1ccc(-n2nc(C(=O)O)cc2-c2ccccc2)cc1` [Compound 24], on hCox-1, the IC50 is no more than 0.137 µM. As to `COC(=O)c1ccc(-n2nc(C(F)(F)F)cc2-c2ccc(C)cc2)cc1` [Compound 26], the IC50 at hCox-2 was greater than 100 µM; at hCox-1, 0.31 µM.

As to `COc1ccc2c(c1)CSc1c(C(F)(F)F)nn(-c3ccc(Cl)cc3)c1-2` [Compound 27], the IC50 is greater than 100 µM on hCox-2 and 0.141 µM on hCox-1. Regarding `COc1ccc(-c2cc(C(F)F)nn2-c2ccc(Cl)cc2)cc1F` [Compound 28], the IC50 was found to be 23 µM on hCox-2 and 0.643 µM at hCox-1. For the compound `COc1ccc(-n2nc(CO[N+](=O)[O-])cc2-c2ccc(Cl)cc2)cc1` [Compound 29], the IC50 on hCox-1 came to 0.242 µM. For the compound `Cc1ccc(-c2cc(C(F)(F)F)nn2-c2ccc(C(F)(F)F)cc2)cc1` [Compound 30], the IC50 at hCox-2 is greater than 100 µM; at hCox-1, 0.108 µM. As to `COc1ccc(-c2cc(C(F)(F)F)nn2-c2ccc(C)cc2)cc1C` [Compound 31], the IC50 on hCox-2 was 67.1 µM; on hCox-1, 0.287 µM. The corresponding values for `COc1ccc(-n2nc(C(=O)Nc3ccc(N=[N+]=[N-])cc3)cc2-c2ccc(Cl)cc2)cc1` [Compound 32] are no less than 1000 µM and 0.012 µM. For `NS(=O)(=O)c1ccc(-n2nc(C(F)(F)F)cc2-c2ccc(Cl)cc2)cc1` [selective COX-2 inhibitor, 4-[5-(4-chlorophenyl)-3-(trifluoromethyl)-1H-pyrazol-1-yl]benzenesulfonamide, reference compound], the “CD41 staining of lesions (platelet deposition)” value in assay [1] (setting [2]) is given as “no effect”. The “effect on TXB2 excretion (in words)” value in assay [1] (10 weeks, COX-2 inhibitor 6 mg/kg) is on record as “no effect”. Also, in assay [1] (setting [3]), the “extent of lesion development” value is 27.9±1.8%.
